Measurements taken from US20220055997A1, “ANTIMICROBIAL COMPOUNDS AND COMPOSITIONS COMPRISING SAME” (B.G. NEGEV TECHNOLOGIES AND APPLICATIONS LTD., AT …, priority 2019, published 2022).

Key:
M. smegmatis ribosomes = experiment: bacterial coupled transcription/translation assay, luciferase reporter (in vitro translation); format: biochemical; conditions: for inhibition of translation of a reporter gene by Mtb ribosomes in vitro / inhibition of luciferase activity compared with chloramphenicol / IC50: FIG. 4; for inhibition of translation of a reporter gene by Mtb ribosomes in vitro: dose-dependent; for inhibition of luciferase activity compared with chloramphenicol: luciferase activity vs compound concentration; for IC50: protein synthesis by in vitro translation reaction, M. smegmatis ribosomes
[1] = system: 29mer RNA SEQ ID NO: 1, hairpin 91 of M. tuberculosis PTC; experiment: T2 relaxation (CPMG) NMR fragment screen; format: binding

| Structure (SMILES) | inhibition of translation of a reporter gene by Mtb ribosomes in vitro (M. smegmatis ribosomes) | inhibition of luciferase activity compared with chloramphenicol (M. smegmatis ribosomes) | IC50 (M. smegmatis ribosomes) | further results |
| --- | --- | --- | --- | --- |
| Cc1nc(CN2CCN(Cc3csc(-c4ccccc4)n3)CC2)cs1 [Compound Nr. 2, 1-[(2-methylthiazol-4-yl)methyl]-4-[(2-phenylthiazol-4-yl)methyl]piperazine] | inhibit translation of a reporter gene | as effective inhibitor of luciferase activity as chloramphenicol | 8.9 µM | inhibition activity compared among compounds (M. smegmatis ribosomes; Nr. 2 compared to compounds Nr. 3, 4 and 5, data not shown): higher inhibition activity |
| CCN1CCN(Cc2csc(-c3ccccc3)n2)CC1 [Compound Nr. 8, 1-ethyl-4-[(2-phenylthiazol-4-yl)methyl]piperazine] | inhibit translation of a reporter gene | about twice as better than both | 4.8 µM |  |
| CNCc1ccc(-c2nccs2)cc1 [N-methyl-4-(1,3-thiazol-2-yl)benzylamine] |  |  |  | hit in T2-edited (CPMG NMR) mini-screen ([1]; pool number 2 of three pools of 10 fragments, with and without target RNA, FIG. 3): hits |
| NCc1csc(-c2cccc(Cl)c2)n1 [[2-(3-chlorophenyl)-1,3-thiazol-4-yl]methanamine] |  |  |  | change in T2 upon addition of RNA ([1]; pool 81, peaks 1-3, 1D CPMG spectra, FIG. 7A): largest change in T2 |
| O=C(N[C@H](CO)[C@H](O)c1ccc([N+](=O)[O-])cc1)C(Cl)Cl [chloramphenicol, reference compound] |  |  | 9.2 µM |  |
